Results reported in PMC6934184, “Selective DNA-PKcs inhibition extends the therapeutic index of localized radiotherapy and chemotherapy” (The Journal of Clinical Investigation, 2019).

Assay: pharmacokinetic analysis in Calu-6 tumor–bearing mice
Assay type: in vivo, mouse
Settings: 30-mg/kg oral dose
Method: by determining the absorbance at 570 nm of SRB stain dissolved in Tris base (10 mM, pH 10.5) using a spectrophotometer (BMG Labtech).
In vivo pharmacokinetic analyses
All animal experiments were performed in accordance with the Animals (Scientific Procedures) 1986 Act. 8-9 week old mice were purchased from Charles River Laboratories and housed under specific pathogen-free conditions under 12 hour light/dark cycles.
Female CD-1, CD-1 nude, BALB/c nude and C57BL/6 mice were treated with NU5455 (30 or 100 mg/kg prepared in 1% (v/v) acetic acid or NMP:Encapsin (30% aq):PEG4000 (1:6:3 v/v/v) dosed by oral gavage. Blood samples were collected into heparinized tubes at 15, 30, 60, 180 and 360 minutes post-gavage.
Blood samples were centrifuged at 6700 x g for 3 minutes, the plasma removed and stored at -20°C prior to analysis for drug by HPLC with fluorescence detection. Aliquots of plasma (50 µl) were vigorously vortexed with acetonitrile (450 µl) and the precipitate removed by centrifugation at 6700 x g for 5 minutes. […]
Samples (20 µl) were applied to a 10 x 0.46 cm Genesis C18 4 µm column (Grace Vydac) fitted with an in-line filter. […] Analytes were detected by fluorescence at 390 nm following excitation at 242 nm. Plasma concentrations were determined using linear standard curves (0.01 µM – 10 µM, R2 > 0.98) generated by extracting compounds from […]

CN(C(=O)CN1CCOCC1)c1ccc2sc3c(-c4cccc5c(=O)cc(N6CC7CCC(C6)O7)oc45)cccc3c2c1 [NU5455]
period NU5455 concentrations in plasma, lung, tumor, or surrounding skin maintained at approximately 1 μM (0.6 μg/mL or μg/g tissue) or above: 3 h
